According to patent US8501792B2, “Treating cancer with desthiazolyl ritonavir” (priority 2008, dated 2013):
Read-outs that look alike come from different tables or passages of the source.

Experiments:
[1] = test system: non-transformed human breast epithelial line MCF10A; test: MTT proliferation assay, MCF10A; assay type: cell-based; conditions: MCF-10A, 48 h
Description: M1 inhibition of proliferation of MCF7, T47D and MDA-MB-231 cell lines was studied. Cells (n=2000/well) were seeded in 96 well plates with drug or vehicle (DMSO) on D1 and after 48 h the cell number was determined by MTT assay. Each assay was performed with 8 measurements for each data point (See FIG. 1, wherein graph A corresponds to MCF7, graph B corresponds to T47D, and graph C corresponds to MDA-MB-231).
(§1) M1 inhibition of proliferation of MCF7 (ER+), T47D (ER+), MDA-MB-231 (triple negative), SKBR3 (ER−/Her2+), and the non-transformed mammary line MCF10A were studied. Cells (n=2000/well) were seeded in 96 well plates with drug or vehicle (DMSO) on D1 and after 48 h the cell number was determined by MTT assay.

[2] = test system: T47D (ER+); test: MTT proliferation assay, T47D; assay type: cell-based; conditions: Homo sapiens
Description: (§2) Cells (n=2000/well) were seeded in 96 well plates with drug or vehicle (DMSO) on D1 and after 48 h the cell number was determined by MTT assay.

[3] = test system: MDA-MB-231 (triple negative); test: MTT proliferation assay, MDA-MB-231; assay type: cell-based; conditions: Homo sapiens
Description: as §2

[4] = test system: SKBR3 (ER-/Her2+); test: MTT proliferation assay, SKBR3; assay type: cell-based; conditions: Homo sapiens, SK-BR-3, Example 6, MTT after 48 h
Description: as §1

[5] = test system: T47D (ER+); test: Annexin V-FITC/PI apoptosis flow cytometry, T47D; assay type: cell-based
Description: (§3) Induction of apoptosis was studied in a MCF7 breast cancer cell line. Apoptotic cells were detected using an Annexin V-FITC/PI apoptosis detection kit (Oncagene, Boston, Mass.). After plating at 5×10^5 in a 100-mm plate, the cells were grown for 48 hours in complete medium in presence of M1, ritonavir, or vehicle (DMSO). The culture and drug exposure conditions for the apoptosis assays were done across a range of 5 to 60 μmol/L M1 and ritonavir. Cells were harvested by trypsin treatment, washed with complete medium to neutralize the trypsin, and stained with PI and Annexin V-FITC. A total of 1×10^4 events were analyzed per assay by FACScan analysis using CellQuest software (Becton Dickinson). Replicate assays were done to confirm the results.
(§4) A similar study was performed using T47D (ER+), MDA-MB-231 (triple negative) and SKBR3 (ER−/Her2+) cell lines were performed as above.

[6] = test system: MDA-MB-231 (triple negative); test: Annexin V-FITC/PI apoptosis flow cytometry, MDA-MB-231; assay type: cell-based
Description: as §3, §4

[7] = test system: SKBR3 (ER-/Her2+); test: Annexin V-FITC/PI apoptosis flow cytometry, SKBR3; assay type: cell-based
Description: as §3, §4

[8] = test system: Hsp90; test: 70 kDa Hsp90 fragment after treatment; assay type: cell-based; conditions: data not shown
[9] = test system: T47D; test: Western blot protein depletion, T47D (Example 4); assay type: cell-based
Description: (§5) Breast cancer cell lines MDA-MB-231, T47D and SKBR3 were used to study depletion of Hsp90 by M1 and ritonavir. Cells were incubated for 48 hours with 1) ritonavir (R) at its IC50 (20 μM for T47D and 40 μM for MDA-MB-231); 2) M1 at ritonavir's IC50; or DMSO (control). Cell extracts were made according to the method of Srirangam et al., Clin Cancer Res. 2006 Mar. 15; 12(6):1883-96. Briefly, nearly confluent cell monolayers were treated with drug or vehicle (DMSO) for 24 or 48 h. Cells were washed with PBS on ice and scraped in a RIPA buffer containing protease inhibitors including MG-132 and phosphatase inhibitors. The cell lysate protein content was determined by μBCA and equal amounts of protein were loaded per lane. Gel electrophoresis by SDS PAGE was performed with equal protein loading per lane (usually 30 μg) and the separated proteins were transferred to 0.45 μm nitrocellulose filters. The transfer was verified by Ponceau stain of the nitrocellulose filters. The filters were probed by chemiluminescent blotting and then exposed to X-ray film. The signal from the protein of interest was normalized to the GAPDH signal. Student's t-test was used to determine the significance of differences.

[10] = test system: MDA-MB-231; test: Western blot protein depletion, MDA-MB-231 (Example 4); assay type: cell-based
Description: as §5

[11] = test system: MDA-MB-231 xenograft; test: Murine breast cancer xenograft; assay type: in vivo, female nude mice (nu-/nu-)
Description: (§6) Six-8 weeks old female nude mice (nu^−/nu^−) (Charles River Laboratories International, Inc., MA) were injected into a right mammary fat pad with 1×10^6 log-phase MDA-MB-231. Mice were monitored bi-weekly for weight and tumor growth. When tumors reached a volume of approximately 30-40 mm^3 (calculated according to the formula: volume (mm^3)=(length)(width)^2/2), mice were randomized into three groups (each group n=10). One group of mice was injected daily i.p. with ritonavir (20 mg/Kg in 100 μl of ethanol-Tween 80), the second with M1 (20 mg/Kg in 100 μl of ethanol-Tween 80), and the third with vehicle only (100 μl of ethanol-Tween 80). […] Mice were weighted and their tumors were measured twice a week for the entire duration of the treatment (42 days).
One hour after the last drug/vehicle injection plasma, tumors, lungs, liver, tongue, and skin were collected from each mouse. Plasma was stored at −80° C.; half of the tissues were treated to prepare paraffin blocks, and half were frozen in liquid nitrogen and stored at −80° C.

[12] = Tolerability in nude mice (MTD, weight); assay type: in vivo; conditions: for MTD: female, nude (nu-/nu-), mouse, in vivo
Description: as §6

[13] = test system: T47D (ER+ line); test: Western blot densitometry, T47D (Example 17); assay type: cell-based; parameters: % Reduction, Total Akt / % Reduction, Phospho Akt / % Reduction, ER-α: concentration or dose not given beside the values; conditions: 24 or 48 hours
Description: An ER^+ line, T47D, was treated with M1 or ritonavir for 24 or 48 hours. The cells were grown to confluence and treated with drug or DMSO vehicle. The cells were scraped on ice into RIPA buffer containing protease inhibitors including MG-132 and phosphatase inhibitors as published (see Srirangam et al. Clincal Ca Research 2006). The RIPA lysate was subjected to electrophoresis, blotted and probed with the appropriate antibodies.

[14] = Example 6, MTT after 48 h, read-out: IC50, proliferation
[15] = as quoted in Example 4, read-out: IC50

| SMILES | IC50 ([1]; Example 1, MTT after 48 h) | IC50 ([1]; Example 6, MTT after 48 h) | IC50 [4] | fraction of apoptotic cells [5] | fraction of apoptotic cells [6] | fraction of apoptotic cells [7] | G1/S regulatory protein Cyclin D1 ([9]; P<0.05) | G1/S regulatory protein Cyclin D1 ([10]; P<0.05) | % Reduction, CDK2 [13] | % Reduction, CDK4 [13] | % Reduction, CDK6 [13] | % Reduction, Cyclin D1 [13] | % Reduction, ER-α [13] | % Reduction, Hsp90 [13] | % Reduction, Phospho Akt [13] | % Reduction, Total Akt [13] | also measured |
| --- | --- | --- | --- | --- | --- | --- | --- | --- | --- | --- | --- | --- | --- | --- | --- | --- | --- |
| CC(C)c1nc(CN(C)C(=O)NC(C(=O)NC(Cc2ccccc2)CC(O)C(N)Cc2ccccc2)C(C)C)cs1 (stereo not shown) [M1, desthiazolyl ritonavir] | 50 µM | 45 µM | 12 µM | 20% | 40% | 78% | reduced | reduced | 51.02% | 2.23% | 21.05% | 45.64% | 56.41% | 82.70% | 56.36% | 56.57% | IC50 [2, 14]: 10 µM; IC50 [3, 14]: 22 µM; major 70 kDa Hsp90 fragment [8]: observed; reducing Hsp90 levels ([9]; 48 hours, at ritonavir's IC50 (20 μM)): more potent than ritonavir; reducing ER alpha ([9]; versus ritonavir, P<0.05): more potent; reducing total Akt, phospho-Akt, GSK3beta, c-src, and survivin ([9]; versus ritonavir, P<0.05): more potent; reducing Hsp90 levels ([10]; 48 hours, at ritonavir's IC50 (40 μM)): more potent than ritonavir; reducing total Akt, phospho-Akt, GSK3beta, c-src, and survivin ([10]; versus ritonavir, P<0.05): more potent; tumor growth compared to mice treated with only the vehicle ([11]; 20 mg/Kg daily i.p., 42 days, FIG. 5A): delayed tumor growth; tumor growth compared to ritonavir ([11]; 20 mg/Kg daily i.p., 42 days, FIG. 5B): statistically significant delay in tumor growth; reduction of the average tumor size ([11]; at MTD (20 mg/Kg), 42 days of follow-up, P<0.05): 2 -fold; MTD [12]: 20 mg/kg |
| CC(C)c1nc(CN(C)C(=O)N[C@H](C(=O)N[C@@H](Cc2ccccc2)C[C@H](O)[C@H](Cc2ccccc2)NC(=O)OCc2cncs2)C(C)C)cs1 [ritonavir] | 35 µM | 31 µM | 33 µM | 13% | 20% | 11% | reduced | reduced | 49.91% | 23.99% | 11.64% | 42.87% | 33.24% | 48.3% | 9.98% | 5.04% | IC50 ([2]; 48 h, read-out: IC50, proliferation): 23 µM; IC50 [2, 15]: 20 µM; IC50 [3, 15]: 40 µM; 70 kDa Hsp90 fragment, less abundant than with M1 [8]: 3 -fold; effect on MDA-MB-231 xenograft ([11]; at its MTD (40 mg/Kg)): inhibits; effect on MDA-MB-231 xenograft ([11]; half its MTD (20 mg/Kg)): ineffective; Animal weight loss ([12]; 20 mg/Kg daily i.p., 42 days, FIG. 5C): did not occur; MTD ([12]; nude mice, read-out: maximum tolerated dose (MTD)): 40 mg/kg |
